Experimental data from PMC6491995, “Preclinical evaluation of the first intravenous small molecule MDM2 antagonist alone and in combination with temozolomide in neuroblastoma” (International Journal of Cancer, 2019).

Key:
[1] = PK of orally formulated idasanutlin in subcutaneous NGP neuroblastoma xenograft model; format: in vivo; conditions: single oral dose equivalent to 100 mg/kg active idasanutlin, subcutaneous NGP xenograft mice, preliminary studies
Method: We previously conducted similar PK/PD analyses of orally formulated idasanutlin in preliminary studies of a subcutaneous NGP neuroblastoma xenograft model after a single oral dose equivalent to 100 mg/kg of active idasanutlin (Fig. S8, Supporting Information).
Figure S8. PK and PD analysis of orally formulated idasanutlin in a TP53 wt subcutaneous xenograft model of neuroblastoma. Female CD1 nude mice were implanted subcutaneously with […] TP53 wt, MDM2 and MYCN amplified NGP neuroblastoma cells. A) PK analysis of idasanutlin levels using LC-MS in plasma samples harvested at the indicated time points from tumour bearing mice treated with a single dose equivalent to 100mg/kg of active idasanutlin by oral gavage. PD profiling for B) induction of the p53 pathway using Western analysis of p53, p21, and MDM2 levels in tumours, and C) MIC-1 levels in plasma harvested at the indicated time points from subcutaneous NGP tumour bearing mice treated with a single dose of idasanutlin by oral gavage. n=3 mice per time point. CTR, control.
(1 picture or pasted object on this page, not shown here)

NB1691 cells = system: NB1691 cells; set-up: method as in PMID 25844600; conditions: 72 h, read-out: 72 h GI50 concentration; cited from earlier work
[2] = set-up: method as in PMID 16047361, PMID 9744506, PMID 9738573, PMID 17114659; conditions: clinical data in children; cited from earlier work
[3] = system: NB1691-Luc orthotopic tumours; assay: Efficacy study in NB1691-Luc orthotopic tumour bearing mice; format: in vivo; conditions: for Reduction in bioluminescence vs. control: RO6839921 eq. 100 mg/kg IV weekly, temozolomide 34 mg/kg PO daily x5; for %ILS (Median): increase in lifespan vs. control based on median survival
Method: (§1) All in vivo experiments were approved by the licencing and ethical committee of the IRCCS San Martino‐IST (Genoa, Italy), the Italian Ministry of Health, Newcastle University and the UK Government Home Office. Orthotopic murine SHSY5Y‐Luc or NB1691‐Luc models were established and monitored using bioluminescence (BLI) IVIS imaging, as previously described.18, 19, 20 RO6839921 (equivalent to 100 mg/kg of active idasanutlin) and temozolomide (34 mg/kg equivalent to 100 mg/m^2 were given by IV tail vein injection and oral gavage, respectively. Tumour bearing mice were randomised into n = 3/group and n = 8/group for pharmacokinetic (PK)/pharmacodynamic (PD) studies and efficacy studies, respectively, and samples taken at the indicated time points (Supporting Information Fig. S1). To minimise esterase activity, 0.2% dichlorvos (Sigma‐Aldrich) was added to blood samples. […] Animals were monitored 2–3 times weekly and euthanized humanely just before showing signs of illness/suffering such as abdominal dilatation, paraplegia, dehydration, or severe weight loss. Percentage increase in lifespan (%ILS) was calculated based on both median and mean survival to humane endpoint, as previously described.5 For more detailed procedures see Supporting Information.
(§2) The efficacy of RO6839921 alone and in combination with temozolomide was assessed in SHSY5Y‐Luc and NB1691‐Luc orthotopic tumour bearing mice. The intermittent schedule used is equivalent to one cycle of treatment over a 3 week period (Fig. S1, Supporting Information). Mice were randomised into control, RO6839921 (once per week for 3 weeks), temozolomide (daily x5/3 weeks; consistent with the currently used clinical dosing schedule in the BEACON Trial (NCT02308527)), or RO6839921 and temozolomide treatment groups (n = 8/group; Fig. S1, Supporting Information).
(§3) Supplementary Information
(§4) Detailed methods of orthotopic in vivo experiments
(§5) Five week old female athymic Nude-Foxn1nu mice (Envigo, Bresso, Italy) were anesthetized, subjected to a laparotomy and orthotopically injected with 1×10^6 SHSY5Y-Luc or NB1691-Luc neuroblastoma cells into the capsule of the left adrenal gland, as previously described (1-3). […]
(§6) using BLI IVIS imaging for tumour development (~2-3 weeks) prior to commencement of treatment. […]
(§7) 10min and stored at -80°C. For efficacy studies, SHSY5Y-Luc or NB1691-Luc tumour bearing mice were randomized […]
(§8) temozolomide (34mg/kg, daily x5 only by oral gavage) or RO6839921 and temozolomide treatment groups with 8 mice per group (Figure S1), and monitored by IVIS imaging for tumour growth. Baseline bioluminescence were measured prior to initiation of treatment on Day 1, and then during treatment on Days 8 (BLI1) and 15 (BLI2) (Figure S1). Twenty-four hours after the end of treatment, 3 mice per group were sacrificed for PK and PD analyses, and the remaining 5 mice per group were monitored for survival to humane endpoint (Figure S1). Animals were monitored 2-3 times weekly

[4] = system: SHSY5Y-Luc orthotopic tumours; assay: Efficacy study in SHSY5Y-Luc orthotopic tumour bearing mice; format: in vivo; conditions: for Reduction in bioluminescence vs. control: RO6839921 eq. 100 mg/kg IV weekly, temozolomide 34 mg/kg PO daily x5; for %ILS (Median): increase in lifespan vs. control based on median survival
Method: as §1, §2, §3, §4, §5, §6, §7, §8

[5] = system: NB1691-Luc orthotopic tumours; assay: IHC analysis of NB1691-Luc orthotopic tumours after one treatment cycle; format: in vivo, mice; conditions: 24 h after one treatment cycle, n = 3
Method: Tumours were disaggregated in Phosphosafe buffer (Merck Millipore) using the Medimachine with Medicons inserts (BD Biosciences, Oxford, UK) and Western analysis carried out as previously described.21 Human MIC‐1 assays were performed according to manufacturer's protocols (R&D Systems). IHC was performed using validated protocols and the Ventana Benchmark Ultra automated system (Ventana Medical Systems, Inc, Tucson, AZ, USA) in the Cellular Pathology Department, Royal Victoria Infirmary, Newcastle upon Tyne, UK.
Figure 3 MIC‐1 levels and IHC analysis of Ki67, p53, p21, and cleaved caspase 3 (CC3) in orthotopic tumours in response to one cycle of RO6839921 and temozolomide alone and in combination. […] Statistically significant differences vs. control were determined by unpaired t‐tests. […] Graphical representation of quantification of % positive Ki67, p53, p21, and CC3 staining in (d) NB1691‐Luc and (e) SHSY5Y‐Luc orthotopic tumours using Imagescope software and algorithms (Leica Biosystems, Newcastle upon Tyne, UK) and/or scored for positive immunostaining by a consultant pathologist (KW). n = 3 mice per group. […] Statistically significant differences were determined by one‐way ANOVA with Bonferroni post‐hoc tests and paired testing vs. control. p ≤ 0.05 (*); 0.01 (**); 0.001 (***); 0.0001 (****). […]

[6] = after 1 week of treatment (Day 8/BLI1)
[7] = after 2 weeks of treatment (Day 15/BLI2)
[8] = increase in lifespan vs. control based on mean survival
[9] = survival to humane endpoint, n = 5/group, one treatment cycle

| SMILES | Plasma concentration of active idasanutlin [1] | GI50 (NB1691 cells) | Main toxicities in children [2] | Reduction in bioluminescence vs. control [3, 6] | Reduction in bioluminescence vs. control [3, 7] | %ILS (Mean) [3, 8] | %ILS (Median) [3] | %ILS (Median) ([3]; listed as Temozolomide) | Mean Survival [3, 9] | Median Survival [3, 9] | Reduction in bioluminescence vs. control [4, 6] | Reduction in bioluminescence vs. control [4, 7] | %ILS (Mean) [4, 8] | %ILS (Median) [4] | %ILS (Median) ([4]; listed as Temozolomide) | Mean Survival [4, 9] | Median Survival [4, 9] | Ki67 positive cells vs. control (IHC) [5] |
| --- | --- | --- | --- | --- | --- | --- | --- | --- | --- | --- | --- | --- | --- | --- | --- | --- | --- | --- |
| COc1cc(C(=O)O)ccc1NC(=O)[C@@H]1N[C@@H](CC(C)(C)C)[C@](C#N)(c2ccc(Cl)cc2F)[C@H]1c1cccc(Cl)c1F [idasanutlin, Idasanutlin] | ~5000 ng/mL | 0.041 µM |  |  |  |  |  |  |  |  |  |  |  |  |  |  |  |  |
| Cn1nnc2c(C(N)=O)ncn2c1=O [temozolomide] |  | 868 µM | thrombocytopenia and neutropenia | 35% | 24% | 16% | 6% | 6% | 41 days | 37 days | 36% | 39% | 11% | 14% | 14% | 49 days | 49 days | did not reduce |
